In assay [1] the target is T1, recombinant human CRTH2 receptor (Homo sapiens, UniProt Q9Y5Y4).
T1 construct: expressed in transfected cells
T1 sequence (Q9Y5Y4 1-395): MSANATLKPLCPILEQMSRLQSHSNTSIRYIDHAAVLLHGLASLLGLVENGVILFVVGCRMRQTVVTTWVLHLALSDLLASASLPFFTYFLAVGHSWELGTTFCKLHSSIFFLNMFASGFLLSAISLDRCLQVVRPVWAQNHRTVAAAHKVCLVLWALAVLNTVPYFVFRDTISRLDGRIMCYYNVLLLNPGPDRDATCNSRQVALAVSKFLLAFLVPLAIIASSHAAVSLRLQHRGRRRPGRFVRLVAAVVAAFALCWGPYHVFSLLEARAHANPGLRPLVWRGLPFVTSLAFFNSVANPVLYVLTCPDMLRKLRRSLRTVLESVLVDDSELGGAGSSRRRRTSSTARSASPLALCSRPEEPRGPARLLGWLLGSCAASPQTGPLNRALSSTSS
The assay is described as follows: GTPγS binding assay. Type of assay: biochemical. To be noted: +HSA; read-out: hDP2 GTPγS μM (+HSA). Summed up:
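Membranes from CHO cells stably expressing recombinant receptor (~12.5 μg/well), incubated 60 min at 30° C with 0.05 nM [^35S]-GTPγS, 80 nM PGD2, 5 μM GDP in pH 7.4 Hepes buffer with 0.2% human serum albumin. Filter-bound radioactivity counted; specific binding = total minus binding without PGD2; IC50 from titration curves.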

The target in assay [2] is T2, human DP1 receptor (Homo sapiens, UniProt Q13258).
T2 construct: tissue Biological Specialty Corporation; host or cells: human platelets, membranes
T2 sequence (Q13258 1-359): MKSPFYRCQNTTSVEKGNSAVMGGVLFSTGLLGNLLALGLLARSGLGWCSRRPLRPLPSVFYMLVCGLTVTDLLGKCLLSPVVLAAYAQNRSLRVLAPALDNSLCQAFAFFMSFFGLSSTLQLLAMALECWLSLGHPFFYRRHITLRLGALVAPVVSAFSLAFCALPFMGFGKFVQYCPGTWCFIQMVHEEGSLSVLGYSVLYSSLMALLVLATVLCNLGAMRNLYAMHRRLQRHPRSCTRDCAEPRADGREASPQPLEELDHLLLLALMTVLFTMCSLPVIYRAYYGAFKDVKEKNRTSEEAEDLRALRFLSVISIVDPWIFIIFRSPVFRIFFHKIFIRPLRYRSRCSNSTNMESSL
Nature of the assay: DP1 radioligand binding assay using [3H]BWA868C. To be noted: hDP1 binding. Put shortly:
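Human platelet membranes (20 μg protein/well) incubated 60 min at room temperature with 2 nM [3H]BWA868C in 50 mM Hepes, 10 mM MnCl2, 1 mM EDTA, ±0.2% human serum albumin, pH 7.4. Bound label measured after filtration; nonspecific binding defined with 10 μM BW A868C. IC50 from titration curves.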

In assay [3] the target is T3, human DP2 receptor (Homo sapiens, UniProt Q9Y5Y4).
T3 construct: expressed in transfected cells
T3 sequence (Q9Y5Y4 1-395): T1 sequence (Q9Y5Y4 1-395)
Nature of the assay: DP2/CRTH2 radioligand binding assay using [3H]PGD2. To be noted: hDP2 (CRTH2) binding assay. Put shortly:
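HEK293 membranes with stable recombinant human DP2, incubated with 1 nM [3H]PGD2 and compound 60 min at room temperature in pH 7.4 HEPES/MnCl2/EDTA buffer, with or without 0.2% human serum albumin.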

SMILES strings stand for the structures.

With `COc1ccc(CC(=O)O)cc1Oc1ccc(-c2cnn(C)c2)cc1CN1C(=O)O[C@@H](c2ccccc2)[C@H]1C` [Compound 1-66, {4-Methoxy-3-[2-((4R,5S)-4-methyl-2-oxo-5-phenyl-oxazolidin-3-ylmethyl)-4-(1-methyl-1H-pyrazol-4-yl)-phenoxy]-phenyl}-acetic acid], the IC50 in assay [1] is less than 0.3 µM; in assay [2], greater than 1 µM; in assay [3] it was less than 0.3 µM.

For the compound `C[C@@H]1[C@H](c2ccccc2)OC(=O)N1Cc1cc(C(F)(F)F)ccc1Oc1cc(CC(=O)O)ccc1OCc1ccccc1` [Compound 1-67, {4-Benzyloxy-3-[2-((4R,5S)-4-methyl-2-oxo-5-phenyl-oxazolidin-3-ylmethyl)-4-trifluoromethyl-phenoxy]-phenyl}-acetic acid], the IC50 in assay [1] is 0.3 to 1 µM; in assay [2], greater than 1 µM; in assay [3], less than 0.3 µM.

In the case of `Cc1nc(C)c(-c2ccc(Oc3cccc(CC(=O)O)c3)c(CN3C(=O)O[C@H](c4ccccc4)[C@@H]3C)c2)s1` [Compound 1-75, {3-[4-(2,4-Dimethyl-thiazol-5-yl)-2-((4S,5R)-4-methyl-2-oxo-5-phenyl-oxazolidin-3-ylmethyl)-phenoxy]-phenyl}-acetic acid], the IC50 is 0.3 to 1 µM in assay [1], less than 0.3 µM in assay [2] and less than 0.3 µM in assay [3].

In the case of `Cc1noc(C)c1-c1ccc(Oc2cccc(CC(=O)O)c2)c(CN2C(=O)O[C@H](c3ccccc3)[C@@H]2C)c1` [Compound 1-76, {3-[4-(3,5-Dimethyl-isoxazol-4-yl)-2-((4S,5R)-4-methyl-2-oxo-5-phenyl-oxazolidin-3-ylmethyl)-phenoxy]-phenyl}-acetic acid], the IC50 is 0.3 to 1 µM in assay [1], less than 0.3 µM in assay [2] and less than 0.3 µM in assay [3].

`C[C@H]1[C@@H](c2ccccc2)OC(=O)N1Cc1cc(C(F)(F)F)ccc1Oc1cccc(CC(=O)O)c1` [Compound 1-77, {3-[2-((4S,5R)-4-Methyl-2-oxo-5-phenyl-oxazolidin-3-ylmethyl)-4-trifluoromethyl-phenoxy]-phenyl}-acetic acid]: the IC50 was 0.3 to 1 µM in assay [1], less than 0.3 µM in assay [2] and less than 0.3 µM in assay [3].

Take `C[C@@H]1[C@H](c2ccccc2)OC(=O)N1Cc1cc(C(F)(F)F)ccc1Oc1cc(CC(=O)O)ccc1O` [Compound 1-78, {4-Hydroxy-3-[2-((4R,5S)-4-methyl-2-oxo-5-phenyl-oxazolidin-3-ylmethyl)-4-trifluoromethyl-phenoxy]-phenyl}-acetic acid]: the IC50 was less than 0.3 µM in assay [1], greater than 1 µM in assay [2] and less than 0.3 µM in assay [3].

For `C[C@@H]1[C@H](c2ccccc2)OC(=O)N1Cc1cc(C(F)(F)F)ccc1Oc1cc(CC(=O)O)ccc1-c1cnn(C)c1` [Compound 1-79, [3-[2-((4R,5S)-4-Methyl-2-oxo-5-phenyl-oxazolidin-3-ylmethyl)-4-trifluoromethyl-phenoxy]-4-(1-methyl-1H-pyrazol-4-yl)-phenyl]-acetic acid], the IC50 was less than 0.3 µM in assay [1], greater than 1 µM in assay [2] and less than 0.3 µM in assay [3].

As to `C[C@@H]1[C@H](c2ccccc2)OC(=O)N1Cc1cc(C(F)(F)F)ccc1Oc1cc(CC(=O)O)ccc1-c1ccccc1` [Compound 1-80, {2-[2-((4R,5S)-4-Methyl-2-oxo-5-phenyl-oxazolidin-3-ylmethyl)-4-trifluoromethyl-phenoxy]-biphenyl-4-yl}-acetic acid], the results for the IC50 in assay [1], in assay [2] and in assay [3] were less than 0.3 µM, greater than 1 µM and less than 0.3 µM, respectively.

In the case of `COc1ccc(CC(=O)O)cc1Oc1cc(Br)ccc1CN1C(=O)O[C@H](c2ccccc2)[C@@H]1C` [Compound 1-81, {3-[5-Bromo-2-((4S,5R)-4-methyl-2-oxo-5-phenyl-oxazolidin-3-ylmethyl)-phenoxy]-4-methoxy-phenyl}-acetic acid], the IC50 in assay [1] is less than 0.3 µM; in assay [2], greater than 1 µM; in assay [3] it was less than 0.3 µM.

`COc1ccc(CC(=O)O)cc1Oc1cc(Br)ccc1CN1C(=O)O[C@@H](c2ccccc2)[C@H]1C` [Compound 1-82, {3-[5-Bromo-2-((4R,5S)-4-Methyl-2-oxo-5-phenyl-oxazolidin-3-ylmethyl)-phenoxy]-4-methoxy-phenyl}-acetic acid]: the values for the IC50 in assay [1], in assay [2] and in assay [3] were less than 0.3 µM, greater than 1 µM and less than 0.3 µM, respectively.

`CCOc1ccc(CC(=O)O)cc1Oc1ccc(C(F)(F)F)cc1CN1C(=O)O[C@@H](c2ccccc2)[C@H]1C` [Compound 1-83, {4-Ethoxy-3-[2-((4R,5S)-4-methyl-2-oxo-5-phenyl-oxazolidin-3-ylmethyl)-4-trifluoromethyl-phenoxy]-phenyl}-acetic acid]: the IC50 in assay [1] is less than 0.3 µM; in assay [2] it was greater than 1 µM; in assay [3], less than 0.3 µM.

In the case of `Cn1cc(-c2ccc(Oc3cccc(CC(=O)O)c3)c(CN3CCOC3=O)c2)cn1` [Compound 1-84, {3-[4-(1-Methyl-1H-pyrazol-4-yl)-2-(2-oxo-oxazolidin-3-ylmethyl)-phenoxy]-phenyl}-acetic acid], the IC50 in assay [1] is 0.3 to 1 µM; in assay [2] it was greater than 1 µM; in assay [3] it was 0.3 to 1 µM.

With `CS(=O)(=O)c1ccc(-c2ccc(Oc3cccc(CC(=O)O)c3)c(CN3CCOC3=O)c2)cc1` [Compound 1-85, {3-[4′-Methanesulfonyl-3-(2-oxo-oxazolidin-3-ylmethyl)-biphenyl-4-yloxy]-phenyl}-acetic acid], the IC50 in assay [1] was 0.3 to 1 µM; in assay [2] it was greater than 1 µM; in assay [3], less than 0.3 µM.

`COc1ccc(CC(=O)O)cc1Oc1ccc(Cl)cc1CN1CCOC1=O` [Compound 1-86, {3-[4-Chloro-2-(2-oxo-oxazolidin-3-ylmethyl)-phenoxy]-4-methoxy-phenyl}-acetic acid]: the IC50 in assay [1] is less than 0.3 µM; in assay [2] it was greater than 1 µM; in assay [3], less than 0.3 µM.

`C[C@@H]1[C@H](c2ccccc2)OC(=O)N1Cc1cc(Br)ccc1Oc1cc(CC(=O)O)ccc1O` [Compound 1-87, {3-[4-Bromo-2-((4R,5S)-4-methyl-2-oxo-5-phenyl-oxazolidin-3-ylmethyl)-phenoxy]-4-hydroxy-phenyl}-acetic acid]: the IC50 was less than 0.3 µM in assay [1], greater than 1 µM in assay [2] and less than 0.3 µM in assay [3].

Regarding `CCOc1ccc(CC(=O)O)cc1Oc1ccc(Br)cc1CN1C(=O)O[C@@H](c2ccccc2)[C@H]1C` [Compound 1-88, {3-[4-Bromo-2-((4R,5S)-4-methyl-2-oxo-5-phenyl-oxazolidin-3-ylmethyl)-phenoxy]-4-ethoxy-phenyl}-acetic acid], the IC50 in assay [1] is less than 0.3 µM; in assay [2], greater than 1 µM; in assay [3] it was less than 0.3 µM.

For `O=C(O)Cc1cc(Cl)cc(Oc2ccc(Br)cc2CN2CCOC2=O)c1` [Compound 1-89, {3-[4-Bromo-2-(2-oxo-oxazolidin-3-ylmethyl)-phenoxy]-5-chloro-phenyl}-acetic acid], the values for the IC50 in assay [1], in assay [2] and in assay [3] were less than 0.3 µM, greater than 1 µM and less than 0.3 µM, respectively.

Take `COc1ccc(CC(=O)O)cc1Oc1ccc(NC(=O)c2ccc(Cl)cc2)cc1CN1CCOC1=O` [Compound 1-91, {3-[4-(4-Chloro-benzoylamino)-2-(2-oxo-oxazolidin-3-ylmethyl)-phenoxy]-4-methoxy-phenyl}-acetic acid]: the IC50 is greater than 1 µM in assay [1], greater than 1 µM in assay [2] and less than 0.3 µM in assay [3].

Regarding `O=C(O)Cc1cccc(Oc2ccc(Br)cc2CN2C(=O)O[C@H]3Cc4ccccc4[C@H]32)c1` [Compound 2-1, {3-[4-Bromo-2-((3aR,8aS)-2-oxo-8,8a-dihydro-3aH-indeno[1,2-d]oxazol-3-ylmethyl)-phenoxy]-phenyl}-acetic acid], the IC50 was less than 0.3 µM in assay [1], greater than 1 µM in assay [2] and less than 0.3 µM in assay [3].

As for `O=C(O)Cc1cccc(Oc2ccc(Br)cc2CN2C(=O)O[C@@H]3Cc4ccccc4[C@@H]32)c1` [Compound 2-2, {3-[4-Bromo-2-((3aS,8aR)-2-oxo-8,8a-dihydro-3aH-indeno[1,2-d]oxazol-3-ylmethyl)-phenoxy]-phenyl}-acetic acid], the IC50 in assay [1] is less than 0.3 µM; in assay [2], greater than 1 µM; in assay [3], less than 0.3 µM.

The values above are taken from patent US8242145B2, “Cyclic diaryl ether compounds as antagonists of prostaglandin D2 receptors” (Panmira Pharmaceuticals, LLC, priority 2008, dated 2012).
